Measured values reported in ChEMBL document CHEMBL5352466, “New bioisosteric sulphur-containing choline kinase inhibitors with a tracked mode of action” (Eur J Med Chem, 2023).
Activity calls are given as the source filed them. The rule behind the calls is not given here.

How the values were obtained:
A549 [1] = test: Antiproliferative activity against human A549 cells assessed as inhibition of cell growth incubated for 72 hrs; type: functional
HT-29 = test: Antiproliferative activity against human HT-29 cells assessed as inhibition of cell growth incubated for 72 hrs; type: functional
HeLa [2] = test: Antiproliferative activity against human HeLa cells assessed as inhibition of cell growth incubated for 72 hrs; type: functional
Choline kinase alpha = Choline kinase alpha (Homo sapiens, UniProt P35790); test: Inhibition of human Choline kinase alpha 1 incubated for 10 mins by liquid-scintillation counter analysis
Choline kinase alpha, sequence (P35790 whole entry): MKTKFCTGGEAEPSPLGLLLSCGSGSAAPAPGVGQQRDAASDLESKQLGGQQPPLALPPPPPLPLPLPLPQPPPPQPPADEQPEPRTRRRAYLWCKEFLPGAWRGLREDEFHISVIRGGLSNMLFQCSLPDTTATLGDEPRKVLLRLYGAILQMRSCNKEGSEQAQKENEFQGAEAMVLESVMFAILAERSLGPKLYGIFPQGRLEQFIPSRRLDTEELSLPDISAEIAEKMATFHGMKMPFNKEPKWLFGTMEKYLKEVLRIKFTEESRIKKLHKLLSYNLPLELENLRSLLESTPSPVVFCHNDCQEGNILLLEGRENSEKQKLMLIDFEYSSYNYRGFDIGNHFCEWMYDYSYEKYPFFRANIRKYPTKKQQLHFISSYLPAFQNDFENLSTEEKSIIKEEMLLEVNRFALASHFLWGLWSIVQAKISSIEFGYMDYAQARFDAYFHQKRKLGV

MCF7 = test: Antiproliferative activity against human MCF7 cells assessed as inhibition of cell growth incubated for 72 hrs; type: functional
MDA-MB-231 = test: Antiproliferative activity against human MDA-MB-231 cells assessed as inhibition of cell growth incubated for 72 hrs; type: functional
[3] = Drug localization in cytosol of human MCF7 cells assessed as increase in fluorescence intensity at 8 uM by microscopic analysis; type: ADME, subcellular
Cell membrane = test: Induction of cell membrane disruption in human MCF7 cells at 8 uM measured after 90 mins; type: subcellular
[4] = Drug localization in cytosol of human MCF7 cells assessed as increase in fluorescence intensity at 8 uM measured after 15 mins by microscopic analysis; type: ADME, subcellular; conditions: 0.25 h
HeLa [5] = test: Induction of mitochondrial membrane potential depolarization in human HeLa cells at 1 to 5 uM incubated for 24 hrs by JC-1 staining based flow cytometry; type: functional, cell-based; conditions: dose 1-5 µM
HeLa [6] = test: Induction of apoptosis in human HeLa cells assessed as increase in cleaved PARP-1 expression at 5 uM measured for 48 hrs by Western blotting analysis; type: functional, cell-based
A549 [7] = test: Induction of cell cycle arrest in human A549 cells at 1 to 5 uM incubated for 24 hrs by PI staining based flow cytometry analysis; type: functional; conditions: dose 1-5 µM
HeLa [8] = test: Induction of apoptosis in human HeLa cells at 1 to 5 uM measured for 72 hrs by Annexin V/propidium iodide staining based flow cytometry analysis; type: functional, cell-based; conditions: dose 1-5 µM
HeLa [9] = test: Induction of apoptosis in human HeLa cells at 1 to 5 uM by Annexin V/propidium iodide staining based flow cytometry analysis; type: functional, cell-based; conditions: dose 1-5 µM, time 48-72 hrs, TDE = time-dependent effect
HeLa [10] = test: Induction of apoptosis in human HeLa cells measured for 48 to 72 hrs by Annexin V/propidium iodide staining based flow cytometry analysis; type: functional, cell-based; conditions: dose 1-5 µM, time 48-72 hrs
A549 [11] = test: Induction of mitochondrial membrane potential depolarization in human A549 cells at 5 uM incubated for 24 hrs by JC-1 staining based flow cytometry; type: functional, cell-based
HeLa [12] = test: Induction of cell cycle arrest in human HeLa cells at 1 to 5 uM incubated for 24 hrs by PI staining based flow cytometry analysis; type: functional; conditions: dose 1-5 µM
HeLa [13] = test: Induction of apoptosis in human HeLa cells assessed as reduction in MCL-1 expression at 5 uM measured for 48 hrs by Western blotting analysis; type: functional, cell-based
Astrocyte = test: Induction of apoptosis in human Astrocyte cells assessed as reduction in MCL-1 expression at 5 uM measured for 48 hrs by Western blotting analysis; type: functional, cell-based
[14] = Antiproliferative activity against human Astrocyte cells assessed as inhibition of cell growth incubated for 72 hrs by resazurin dye based assay; type: toxicity
HeLa [15] = test: Induction of cell cycle arrest in human HeLa cells assessed as accumulation of cells at G1 phase at 1 to 5 uM incubated for 24 hrs by PI staining based flow cytometry analysis; type: functional; conditions: dose 1-5 µM
[16] = Antiproliferative activity against human MCF-10A cells assessed as inhibition of cell growth incubated for 72 hrs by resazurin dye based assay; type: toxicity

SMILES | GI50 (A549 [1]) [µM] | GI50 (HT-29) [µM] | GI50 (HeLa [2]) [µM] | IC50 (Choline kinase alpha; read-out: IC50) [µM] | GI50 (MCF7) [µM] | GI50 (MDA-MB-231) [µM] | further results
c1cc2c(s1)c(N1CCCC1)cc[n+]2Cc1ccc(SSc2ccc(C[n+]3ccc(N4CCCC4)c4sccc43)cc2)cc1 | 6.16 | > 10 | 2.2 | 0.35 | – | – | –
c1cc2c(s1)c(N1CCCC1)cc[n+]2Cc1ccc(SCCSc2ccc(C[n+]3ccc(N4CCCC4)c4sccc43)cc2)cc1 | 1.37 | 7.48 | 9.93 | 1.01 | 3.11 | 2.01 | –
CN(c1ccc(Cl)cc1)c1cc[n+](Cc2ccc(SSc3ccc(C[n+]4ccc(N(C)c5ccc(Cl)cc5)c5ccccc54)cc3)cc2)c2ccccc12 | > 10 | > 10 | > 10 | 0.85 | – | – | –
c1cc2c(N3CCCCC3)nc[n+](Cc3ccc(SSc4ccc(C[n+]5cnc(N6CCCCC6)c6ccsc65)cc4)cc3)c2s1 | > 10 | > 10 | > 10 | 0.52 | – | – | –
CN(C)c1cc[n+](Cc2ccc(SSc3ccc(C[n+]4ccc(N(C)C)cc4)cc3)cc2)cc1 | 2.45 | > 10 | 0.44 | 0.64 | – | – | –
[Br-].[Br-].c1cc2c(s1)c(N1CCCC1)nc[n+]2Cc1ccc(SCCSc2ccc(C[n+]3cnc(N4CCCC4)c4sccc43)cc2)cc1 | 0.44 | 2.63 | 10.1 | 1.35 | 4.34 | 1.63 | Drug uptake [3]: Active; Activity (Cell membrane): inactive; Drug uptake [4]: Active
[Br-].[Br-].c1cc(SCCSc2ccc(C[n+]3ccc(N4CCCC4)cc3)cc2)ccc1C[n+]1ccc(N2CCCC2)cc1 | 1.59 | 9.06 | 8.84 | – | – | 1.75 | IC50 (Choline kinase alpha): Not Determined(Insoluble)
c1cc2c(s1)c(N1CCCC1)nc[n+]2Cc1ccc(SSc2ccc(C[n+]3cnc(N4CCCC4)c4sccc43)cc2)cc1 | > 10 | > 10 | > 10 | 0.57 | – | – | –
Clc1ccc2c(N3CCCC3)cc[n+](Cc3ccc(SCCSc4ccc(C[n+]5ccc(N6CCCC6)c6ccc(Cl)cc65)cc4)cc3)c2c1 | 0.53 | 3 | 0.26 | – | 1.34 | – | Activity (HeLa [5]): Active; Activity (HeLa [6]): Active; Activity (A549 [7]): inactive; Activity (HeLa [8]): Active; Activity (HeLa [9]): Tde; Activity (HeLa [10]): Dose-Dependent Effect; Activity (A549 [11]): Active; Activity (HeLa [12]): inactive; Activity (HeLa [13]): Active; Activity (Astrocyte): inactive; GI50 at 72 h [14]: 5 µM; Activity (HeLa [15]): Active; GI50 at 72 h [16]: 2.6 µM
Clc1ccc2c(N3CCCC3)cc[n+](Cc3ccc(SSc4ccc(C[n+]5ccc(N6CCCC6)c6ccc(Cl)cc65)cc4)cc3)c2c1 | > 10 | > 10 | > 10 | 1.43 | – | – | –
CN(c1ccccc1)c1nc[n+](Cc2ccc(SCCSc3ccc(C[n+]4cnc(N(C)c5ccccc5)c5sccc54)cc3)cc2)c2ccsc12 | 8.2 | > 10 | > 10 | 2.6 | 9.12 | 8.94 | –
